Laboratory results reported in paper PMC7413254 (Nature Communications, 2020).
Like-named read-outs stand apart in the source and are kept apart here.

Experiments:
[1] = biological target: T1, PfCRT^Dd2 (Plasmodium falciparum, UniProt Q9N623, A220S/I356T/K76T/M74I/N326S/N75E/Q271E/R371I); assay: [3H]CQ uptake into Xenopus oocytes, cis-inhibition by unlabelled solute; format: cell-based
How it was run: (§1)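 Each treatment used ten oocytes, repeated in at least four experiments on different days with oocytes from different frogs. Conditions: ND96 pH 5.5, 27.5 °C, 1.5 h; read-out by scintillation counting.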

[2] = biological target: T2, PfCRT^Ecu1110 (Plasmodium falciparum, UniProt Q9N623, A220S/I356L/K76T/N326D); assay: as above; format: cell-based
T2 sequence (Q9N623 whole entry A220S/I356L/K76T/N326D): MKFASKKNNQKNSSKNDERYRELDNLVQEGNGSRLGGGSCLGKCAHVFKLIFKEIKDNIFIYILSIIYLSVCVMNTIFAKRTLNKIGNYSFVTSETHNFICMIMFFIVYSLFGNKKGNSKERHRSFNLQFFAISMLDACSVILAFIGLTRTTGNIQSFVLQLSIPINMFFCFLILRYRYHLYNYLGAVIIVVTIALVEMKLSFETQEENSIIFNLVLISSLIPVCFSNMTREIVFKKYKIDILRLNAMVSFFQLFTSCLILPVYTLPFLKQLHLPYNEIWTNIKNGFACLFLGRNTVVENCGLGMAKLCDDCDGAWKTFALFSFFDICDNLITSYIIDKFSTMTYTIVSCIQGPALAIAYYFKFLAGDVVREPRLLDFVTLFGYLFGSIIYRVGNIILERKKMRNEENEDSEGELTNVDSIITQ
How it was run: as §1

[3] = biological target: T1, PfCRT^Dd2; assay: cell-based; format: cell-based; settings: […]; for activity at 45000 µM: [test solute]i = 45 mM (30 mM for some solutes due to solubility)
How it was run: (§2)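 Oocytes (ten per treatment, ≥4 independent frogs/days) were preloaded by injecting VF-6 in 25 nL ND96 at pH 5.0, 5.5, 6.0 or 7.0, or Na^+-free choline buffer, then uptake run 1.5 h, 27.5 °C, ND96 pH 5.5 by default. Internal concentrations assumed ~400 nL oocyte volume.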

[4] = biological target: T3, PfCRT^3D7 (Plasmodium falciparum, UniProt Q8IBZ9); assay: cell-based; format: cell-based
T3 sequence (Q8IBZ9 59-398): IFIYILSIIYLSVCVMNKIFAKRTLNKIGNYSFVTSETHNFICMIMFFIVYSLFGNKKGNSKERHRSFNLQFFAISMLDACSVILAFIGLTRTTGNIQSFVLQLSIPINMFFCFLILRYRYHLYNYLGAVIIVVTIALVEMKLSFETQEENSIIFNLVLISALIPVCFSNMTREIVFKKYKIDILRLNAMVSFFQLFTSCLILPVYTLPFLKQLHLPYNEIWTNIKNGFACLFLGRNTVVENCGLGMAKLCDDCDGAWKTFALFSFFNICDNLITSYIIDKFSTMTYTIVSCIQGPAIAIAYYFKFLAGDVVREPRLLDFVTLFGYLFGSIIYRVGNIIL
How it was run: as §2

[5] = biological target: T4, PfNT1 (Plasmodium falciparum, UniProt Q8IDM6); assay: cell-based; format: cell-based; settings: for activity at 5000 µM: total [3H]CQ transport
T4 construct: expressed in transfected cells; host or cells: Xenopus laevis oocytes (stage V-VI), cRNA-injected
T4 sequence (Q8IDM6 whole entry): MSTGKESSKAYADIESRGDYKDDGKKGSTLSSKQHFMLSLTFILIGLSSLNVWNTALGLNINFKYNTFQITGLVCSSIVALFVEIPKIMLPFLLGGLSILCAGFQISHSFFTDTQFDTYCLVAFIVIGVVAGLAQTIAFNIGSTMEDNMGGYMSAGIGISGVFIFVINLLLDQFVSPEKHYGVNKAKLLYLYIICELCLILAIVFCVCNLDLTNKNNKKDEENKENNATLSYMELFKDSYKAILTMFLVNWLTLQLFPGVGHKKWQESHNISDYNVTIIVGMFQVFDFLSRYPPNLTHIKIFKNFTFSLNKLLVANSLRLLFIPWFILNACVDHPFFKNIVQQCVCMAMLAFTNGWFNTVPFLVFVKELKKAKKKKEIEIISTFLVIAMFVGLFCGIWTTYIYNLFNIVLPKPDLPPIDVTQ
How it was run: as §2

[6] = biological target: T2, PfCRT^Ecu1110; assay: cell-based; format: cell-based; settings: […]
How it was run: as §2

[7] = tested on: non-expressing oocytes; format: cell-based, Xenopus laevis; settings: total [3H]CQ transport; for Uptake of [3H]CQ (% non-expressing oocyte control), trans-stimulation: non-expressing oocytes, normalised to the oocyte type control; for Uptake of [3H]CQ (% PfCRTDd2 control), trans-stimulation, non-expressing oocytes: mean ± SEM, SEM
How it was run: as §2

[8] = tested on: PfCRT; assay: Test of solutes as potential co-substrates for influx of VF-6 via PfCRT into the oocyte; format: cell-based, Plasmodium falciparum; parameters: key: X: Compounds that have been tested as potential co-substrates but are not required for influx of VF-6 via PfCRT into the oocyte; settings: X = tested
[9] = biological target: T3, PfCRT^3D7; assay: cell-based; format: cell-based; settings: total [3H]CQ transport; for inhibition at 500 µM: [test solute] = 0.5 mM; for inhibition at 1000 µM: [test solute] = 1 mM; for inhibition at 2000 µM: [test solute] = 2 mM
How it was run: as §1

[10] = tested on: non-expressing oocytes; assay: cells; format: cell-based, Xenopus laevis; settings: Xenopus laevis, total [3H]CQ transport; for inhibition at 500 µM: [test solute] = 0.5 mM; for inhibition at 1000 µM: [test solute] = 1 mM; for inhibition at 2000 µM: [test solute] = 2 mM
How it was run: as §1

[11] = tested on: PfCRT; assay: Influx of VF-6 via PfCRT into the oocyte, solutes tested as potential co-substrates; format: cell-based, Plasmodium falciparum; parameters: key: X: Compounds that have been tested as potential co-substrates but are not required for influx of VF-6 via PfCRT into the oocyte; settings: X marks the solute
[12] = read-out: PfCRT-mediated [3H]CQ transport, cis-inhibition (% PfCRTDd2 control)
[13] = read-out: Uptake of [3H]CQ (% PfCRTDd2 control), cis-inhibition, PfCRTDd2, SEM
[14] = read-out: PfCRT-mediated [3H]CQ transport, cis-inhibition (% PfCRTEcu1110 control)
[15] = read-out: Uptake of [3H]CQ (% PfCRTDd2 control), cis-inhibition, PfCRTEcu1110, SEM
[16] = read-out: Uptake of [3H]CQ (% PfCRTEcu1110 control), cis-inhibition
[17] = read-out: [3H]CQ transport (% PfCRTEcu1110 control), cis-inhibition, PfCRTEcu1110, SEM
[18] = PfCRT3D7 oocytes, normalised to the oocyte type control, read-out: Uptake of [3H]CQ (% PfCRT3D7 control), cis-inhibition
[19] = mean ± SEM, SEM, read-out: Uptake of [3H]CQ (% PfCRTDd2 control), cis-inhibition, PfCRT3D7
[20] = Oocyte, mean ± SEM, SEM, read-out: Uptake of [3H]CQ (% PfCRTDd2 control), cis-inhibition, non-expressing oocytes
[21] = non-expressing oocytes, normalised to the oocyte type control, read-out: Uptake of [3H]CQ (% non-expressing oocyte control), cis-inhibition

T1 sequence (Q9N623 whole entry A220S/I356T/K76T/M74I/N326S/N75E/Q271E/R371I): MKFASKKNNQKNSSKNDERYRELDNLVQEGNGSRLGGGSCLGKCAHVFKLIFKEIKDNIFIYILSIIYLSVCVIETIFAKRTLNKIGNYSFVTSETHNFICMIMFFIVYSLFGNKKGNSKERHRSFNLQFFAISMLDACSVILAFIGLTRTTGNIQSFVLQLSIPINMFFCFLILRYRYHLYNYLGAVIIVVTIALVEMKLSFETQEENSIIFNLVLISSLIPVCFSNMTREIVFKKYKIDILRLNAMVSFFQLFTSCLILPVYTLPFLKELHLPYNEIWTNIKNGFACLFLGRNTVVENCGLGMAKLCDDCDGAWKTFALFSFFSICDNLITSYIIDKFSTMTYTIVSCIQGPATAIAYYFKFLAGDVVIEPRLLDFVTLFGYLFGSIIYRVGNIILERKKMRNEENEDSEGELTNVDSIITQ

N[C@@H](Cc1ccccc1)C(=O)O [L-phenylalanine]
inhibition at 500 µM [1, 12]: 94 ± 2.7% | inhibition at 1000 µM [1, 12]: 95 ± 2.7% | inhibition at 500 µM [1, 13]: 96 ± 3.6% | inhibition at 1000 µM [1, 13]: 97 ± 3.3% | inhibition at 2000 µM [1, 13]: 98 ± 2.2% | inhibition at 500 µM [2, 14]: 95 ± 3.6% | inhibition at 1000 µM [2, 14]: 95 ± 0.3% | inhibition at 500 µM [2, 15]: 32 ± 2.5% | inhibition at 1000 µM [2, 15]: 32 ± 1.5% | inhibition at 2000 µM [2, 15]: 32 ± 1.5% | inhibition at 500 µM [2, 16]: 97 ± 2.1% | inhibition at 1000 µM [2, 16]: 96 ± 1.8% | inhibition at 2000 µM [2, 16]: 98 ± 2.4% | inhibition at 500 µM [2, 17]: 29 ± 0.7% | inhibition at 1000 µM [2, 17]: 29 ± 1.7% | inhibition at 2000 µM [2, 17]: 29 ± 0.5% | activity at 5000 µM ([3]; pH 5.5, read-out: PfCRT-mediated [3H]CQ transport, trans-stimulation (% PfCRTDd2 control), [test solute]i = 5 mM (intracellular), PfCRTDd2 oocytes, normalised to oocyte type control): 99 ± 3.9% | activity at 5000 µM ([3]; pH 5.5, read-out: Uptake of [3H]CQ (% PfCRTDd2 control), trans-stimulation, PfCRTDd2, total [3H]CQ transport, [test solute]i = 5 mM (intracellular), mean ± SEM, SEM): 101 ± 2.4% | activity at 5000 µM ([3]; pH 5.5, read-out: Uptake of [3H]CQ (% PfCRTDd2 control), trans-stimulation, PfCRTDd2 oocytes, [test solute]i = 5 mM, total [3H]CQ transport, normalised to the oocyte type control): 101 ± 2.4% | activity at 45000 µM ([3]; pH 5.5, read-out: Uptake of [3H]CQ (% PfCRTDd2 control), trans-stimulation, PfCRTDd2 oocytes, total [3H]CQ transport, normalised to the oocyte type control): 100 ± 2.2% | activity at 5000 µM ([3]; pH 5.5, read-out: [3H]CQ transport (% PfCRTDd2 control), trans-stimulation, PfCRTDd2, trans-stimulation, [test solute]i = 5 mM (injected), PfCRT-mediated component (background subtracted), mean ± SEM, SEM): 99 ± 3.9% | activity at 45000 µM ([3]; pH 5.5, read-out: [3H]CQ transport (% PfCRTDd2 control), trans-stimulation, PfCRTDd2, trans-stimulation, PfCRT-mediated component (background subtracted), mean ± SEM, SEM): 98 ± 3% | activity at 5000 µM ([4]; PfCRT3D7 oocytes, [test solute]i = 5 mM, total [3H]CQ transport, normalised to the oocyte type control, read-out: Uptake of [3H]CQ (% PfCRT3D7 control), trans-stimulation): 98 ± 3.3% | [3H]CQ transport (% PfCRT3D7 control), trans-stimulation, PfCRT3D7 ([4]; SEM): 0.3 ± 0.01 % PfCRT3D7 control | activity at 5000 µM ([4]; [test solute]i = 5 mM (intracellular), PfCRT3D7 oocytes, normalised to oocyte type control, read-out: PfCRT-mediated [3H]CQ transport, trans-stimulation (% PfCRT3D7 control)): 96 ± 2.8% | activity at 45000 µM ([4]; SEM, read-out: Uptake of [3H]CQ (% PfCRTDd2 control), trans-stimulation, PfCRT3D7): 3.3 ± 0.05% | activity at 45000 µM ([4]; read-out: PfCRT-mediated [3H]CQ transport, trans-stimulation (% PfCRT3D7 control)): 96 ± 2.1% | activity at 45000 µM ([4]; read-out: Uptake of [3H]CQ (% PfCRT3D7 control), trans-stimulation): 98 ± 3% | activity at 5000 µM ([4]; total [3H]CQ transport, [test solute]i = 5 mM (intracellular), mean ± SEM, SEM, read-out: Uptake of [3H]CQ (% PfCRTDd2 control), trans-stimulation, PfCRT3D7): 3.3 ± 0.01% | activity at 5000 µM ([5]; PfNT1 oocytes, [test solute]i = 5 mM, normalised to the oocyte type control, read-out: Uptake of [3H]CQ (% PfNT1 control), trans-stimulation): 99 ± 2.2% | activity at 45000 µM ([5]; SEM, read-out: Uptake of [3H]CQ (% PfCRTDd2 control), trans-stimulation, PfNT1): 2.8 ± 0.07% | activity at 45000 µM ([5]; read-out: Uptake of [3H]CQ (% PfNT1 control), trans-stimulation): 100 ± 2.5% | activity at 5000 µM ([5]; [test solute]i = 5 mM (intracellular), mean ± SEM, SEM, read-out: Uptake of [3H]CQ (% PfCRTDd2 control), trans-stimulation, PfNT1): 3 ± 0.01% | activity at 5000 µM ([6]; pH 5.5, read-out: PfCRT-mediated [3H]CQ transport, trans-stimulation (% PfCRTEcu1110 control), [test solute]i = 5 mM (intracellular), PfCRTEcu1110 oocytes, normalised to oocyte type control): 96 ± 1.9% | activity at 5000 µM ([6]; pH 5.5, read-out: Uptake of [3H]CQ (% PfCRTEcu1110 control), trans-stimulation, PfCRTEcu1110 oocytes, [test solute]i = 5 mM, total [3H]CQ transport, normalised to the oocyte type control): 98 ± 3.4% | activity at 45000 µM ([6]; pH 5.5, read-out: Uptake of [3H]CQ (% PfCRTEcu1110 control), trans-stimulation, PfCRTEcu1110 oocytes, [test solute]i = 45 mM (30 mM for some solutes due to solubility), total [3H]CQ transport, normalised to the oocyte type control): 101 ± 3.2% | activity at 5000 µM ([6]; read-out: Uptake of [3H]CQ (% PfCRTDd2 control), trans-stimulation, PfCRTEcu1110, total [3H]CQ transport, [test solute]i = 5 mM (intracellular), mean ± SEM, SEM): 35 ± 1.3% | activity at 45000 µM ([6]; read-out: Uptake of [3H]CQ (% PfCRTDd2 control), trans-stimulation, PfCRTEcu1110, total [3H]CQ transport, [test solute]i = 45 mM (intracellular; 30 mM for some solutes due to solubility), mean ± SEM, SEM): 36 ± 1.7% | Uptake of [3H]CQ (% non-expressing oocyte control), trans-stimulation ([7]; [test solute]i = 5 mM): 98 ± 2.6 % non-expressing oocyte control | Uptake of [3H]CQ (% non-expressing oocyte control), trans-stimulation ([7]; [test solute]i = 45 mM (30 mM for some solutes due to solubility)): 99 ± 2.7 % non-expressing oocyte control | Uptake of [3H]CQ (% PfCRTDd2 control), trans-stimulation, non-expressing oocytes ([7]; [test solute]i = 5 mM (intracellular)): 2.4 ± 0.03 % PfCRTDd2 control | Uptake of [3H]CQ (% PfCRTDd2 control), trans-stimulation, non-expressing oocytes ([7]; [test solute]i = 45 mM (intracellular; 30 mM for some solutes due to solubility)): 2.2 ± 0.09 % PfCRTDd2 control | Tested as potential co-substrate but not required for influx of VF-6 via PfCRT into the oocyte [8]: X | inhibition at 500 µM [9, 18]: 99 ± 4.3% | inhibition at 1000 µM [9, 18]: 99 ± 5.2% | inhibition at 2000 µM [9, 18]: 100 ± 3.6% | inhibition at 500 µM [9, 19]: 3.1 ± 0.06% | inhibition at 1000 µM [9, 19]: 3.1 ± 0.06% | inhibition at 2000 µM [9, 19]: 3.1 ± 0.07% | inhibition at 500 µM [10, 20]: 3 ± 0.06% | inhibition at 1000 µM [10, 20]: 2.7 ± 0.04% | inhibition at 2000 µM [10, 20]: 2.3 ± 0.1% | inhibition at 500 µM [10, 21]: 98 ± 6.3% | inhibition at 1000 µM [10, 21]: 100 ± 4.6% | inhibition at 2000 µM [10, 21]: 99 ± 3.2% | Compounds that have been tested as potential co-substrates but are not required for influx of VF-6 via PfCRT into the oocyte [11]: X
